From patent US20240358693A1, “METHODS OF TREATING PAIN” (Aisa Pharma, Inc., priority 2023, published 2024)

System: participants with SSc-RP
Test: Frequency of weekly RP attacks (all attacks; primary efficacy endpoint)
Assay type: in vivo, human
Excerpt: Percent change from baseline evaluation for frequency of weekly RP attacks were or will be used as the primary efficacy variable. The sponsor-developed participant-informed diary will be used to record data. Frequency of weekly RP attacks is defined as the total number of RP attacks divided by the number of days with available diary data within the last 7 days of each dosing period then multiplied by 7. Total number of RP attacks during the last 7 days of screening period divided by the number of days with available data then multiplied by 7 will be used as baseline for the analysis of all periods. The variable will be calculated as follows:
Percentage change={(weekly RP attacks for the last 7 days of each dosing period−Baseline weekly RP attacks)/Baseline weekly RP attacks}*100%.
Absolute change=weekly RP attacks for the last 7 days of each dosing period−Baseline weekly RP attacks
Percent change from baseline evaluation for frequency of weekly RP attacks was and will be the primary efficacy endpoint. Frequency of weekly RP attacks is defined as the total number of RP attacks divided by the number of days with available diary data within the last 7 days of each dosing period then multiplied by 7. Total number of RP attacks during the last 7 days of screening period divided by the number of days with available data then multiplied by 7 will be used as baseline for the analysis of all periods.
Percent change from baseline evaluation for frequency of weekly RP attacks were the primary efficacy endpoint. Data collected in the last 7 days of each dosing period were used for this analysis. Screening assessments were used as baseline for the analysis of all periods. No multiple comparison adjustment were used to control alpha for the multiple comparisons. Mixed effects model were used for analysis of the primary endpoint according to the crossover design. Other efficacy endpoints of continuous variables were analyzed using similar methodology. For nominal data, chi-square tests were applied. Generalized Estimating Equations method were used, as appropriate, for adjusting for potential confounding factors. In addition, the final analysis assessed whether in this study of severe Raynaud's disease participants, the minimally important difference, previously concluded of 14-15 points on the 100 point RCS scale had been achieved in the cilnidipine dose group. It also recorded the percentage of participants achieving a PASS (34 point difference from baseline on a 0-100 VAS) in each treatment group.

[1] = Tadalafil 5 mg, n=1, Excluding Outliers, by Baseline RCS, second subgroup, ITT Part A
[2] = all attacks, excluding outliers, cilnidipine 10 mg, tadalafil 5 mg daily
[3] = all attacks, by baseline RCS, second subgroup, cilnidipine 10 mg, tadalafil 5 mg daily
[4] = all attacks, cilnidipine 10 mg, tadalafil 5 mg daily

`CN1CC(=O)N2[C@H](c3ccc4c(c3)OCO4)c3[nH]c4ccccc4c3C[C@@H]2C1=O` [Tadalafil, tadalafil] was tested, and the “Weekly RP Attacks (All Attacks) Change from Baseline, Mean” value [1] was 6.00, the “Weekly RP Attacks (All Attacks) Change from Baseline, Median” value [1] was 6.00 and the “Weekly RP Attacks (All Attacks) Percent Change from Baseline, Mean” value [1] was 46.15%. For the same molecule, the “Weekly RP Attacks (All Attacks) Percent Change from Baseline, Median” value [1] was 46.15%, the “Weekly RP Attacks (All Attacks), Mean” value [1] was 19.00 and the “Weekly RP Attacks (All Attacks), Median” value [1] was 19.00. For the same molecule, the “Weekly RP Attacks Change from Baseline, Max” value (“Weekly RP Attacks Change … Max” for short) [2] was 6.0, 6.0, the “Weekly RP Attacks Change from Baseline, Mean (SD)” value [2] was 6.00 and the “Weekly RP Attacks Change from Baseline, Median” value [2] was 6.00. The “Weekly RP Attacks Change from Baseline, Min” value (“Weekly RP Attacks Change … Min” for short) [2] was 6.0, 6.0, the “Weekly RP Attacks Change from Baseline, Q1” value (“Weekly RP Attacks Change … Q1” for short) [2] was 6.00, 6.00 and the “Weekly RP Attacks Change from Baseline, Q3” value (“Weekly RP Attacks Change … Q3” below) [2] was 6.00, 6.00. The “Weekly RP Attacks Percent Change from Baseline, Max” value [2] was 46.2, 46.2%, the “Weekly RP Attacks Percent Change from Baseline, Mean (SD)” value [2] was 46.15% and the “Weekly RP Attacks Percent Change from Baseline, Median” value [2] was 46.15%. For the same molecule, the “Weekly RP Attacks Percent Change from Baseline, Min” value [2] was 46.2, 46.2%, the “Weekly RP Attacks Percent Change from Baseline, Q1” value [2] was 46.15, 46.15% and the “Weekly RP Attacks Percent Change from Baseline, Q3” value [2] was 46.15, 46.15%. The “Weekly RP Attacks, Max” value [2] was 19.0, 19.0, the “Weekly RP Attacks, Mean (SD)” value [2] was 19.00 and the “Weekly RP Attacks, Median” value [2] was 19.00. For the same molecule, the “Weekly RP Attacks, Min” value [2] was 19.0, 19.0, the “Weekly RP Attacks, Q1” value [2] was 19.00, 19.00 and the “Weekly RP Attacks, Q3” value [2] was 19.00, 19.00. The “Weekly RP Attacks Change … Max” value [3] was 6.0, the “Weekly RP Attacks Change from Baseline, Mean” value [3] was 3.00 and the “Weekly RP Attacks Change from Baseline, Median” value [3] was 3.00. For the same molecule, the “Weekly RP Attacks Change … Min” value [3] was 0.0, the “Weekly RP Attacks Change … Q1” value [3] was 0.00 and the “Weekly RP Attacks Change … Q3” value [3] was 6.00. The “Weekly RP Attacks Percent Change from Baseline, Max” value [3] was 46.2%, the “Weekly RP Attacks Percent Change from Baseline, Mean” value [3] was 23.08% and the “Weekly RP Attacks Percent Change from Baseline, Median” value [3] was 23.08%. For the same molecule, the “Weekly RP Attacks Percent Change from Baseline, Min” value [3] was 0.0%, the “Weekly RP Attacks Percent Change from Baseline, Q1” value [3] was 0.00% and the “Weekly RP Attacks Percent Change from Baseline, Q3” value [3] was 46.15%. The “Weekly RP Attacks, Max” value [3] was 19.0, the “Weekly RP Attacks, Mean” value [3] was 13.00 and the “Weekly RP Attacks, Median” value [3] was 13.00. For the same molecule, the “Weekly RP Attacks, Min” value [3] was 7.0, the “Weekly RP Attacks, Q1” value [3] was 7.00 and the “Weekly RP Attacks, Q3” value [3] was 19.00. The “Weekly RP Attacks Change … Max” value [4] was 6.0, the “Weekly RP Attacks Change from Baseline, Mean (SD)” value [4] was 3.00 (4.243) and the “Weekly RP Attacks Change from Baseline, Median” value [4] was 3.00. The “Weekly RP Attacks Change … Min” value [4] was 0.0, the “Weekly RP Attacks Change … Q1” value [4] was 0.00 and the “Weekly RP Attacks Change … Q3” value [4] was 6.00. For the same molecule, the “Weekly RP Attacks Percent Change from Baseline, Max” value [4] was 46.2%, the “Weekly RP Attacks Percent Change from Baseline, Mean (SD)” value [4] was 23.08 (32.636) Percent and the “Weekly RP Attacks Percent Change from Baseline, Median” value [4] was 23.08%. For the same molecule, the “Weekly RP Attacks Percent Change from Baseline, Min” value [4] was 0.0%, the “Weekly RP Attacks Percent Change from Baseline, Q1” value [4] was 0.00% and the “Weekly RP Attacks Percent Change from Baseline, Q3” value [4] was 46.15%. The “Weekly RP Attacks, Max” value [4] was 19.0, the “Weekly RP Attacks, Mean (SD)” value [4] was 13.00 (8.485) and the “Weekly RP Attacks, Median” value [4] was 13.00. For the same molecule, the “Weekly RP Attacks, Min” value [4] was 7.0, the “Weekly RP Attacks, Q1” value [4] was 7.00 and the “Weekly RP Attacks, Q3” value [4] was 19.00.
